Molecular target: T1, human adenosine A2b receptor (Homo sapiens, UniProt P29275)
T1 construct: expressed in transfected cells; host or cells: CHO-K1 (Chinese Hamster Ovary) with CRE-luciferase reporter
T1 sequence (P29275 1-332): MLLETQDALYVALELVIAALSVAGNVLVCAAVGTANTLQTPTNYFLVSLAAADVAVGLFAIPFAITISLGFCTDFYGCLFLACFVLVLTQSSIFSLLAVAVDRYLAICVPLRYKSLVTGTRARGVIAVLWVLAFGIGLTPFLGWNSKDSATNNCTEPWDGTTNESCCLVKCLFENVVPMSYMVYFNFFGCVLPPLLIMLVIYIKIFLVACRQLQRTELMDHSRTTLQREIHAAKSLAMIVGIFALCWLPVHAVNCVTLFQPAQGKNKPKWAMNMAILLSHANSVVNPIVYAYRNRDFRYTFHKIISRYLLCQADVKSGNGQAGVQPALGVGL
Experiment: Cellular reporter gene (CRE-luciferase) A2b receptor antagonist assay in recombinant CHO-K1 cells stimulated with NECA
Assay type: cell-based
Settings: recombinant CHO-K1 cell line, co-incubation with EC50 concentration of NECA, 3 hours, in some cases means, rounded to two significant digits
In short: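 CHO-K1 cells expressing human A2b receptor with a CRE-driven firefly luciferase reporter, co-incubated with test compound and NECA at its same-day EC50 concentration. Luminescence read 3 hours after NECA addition.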

SMILES | IC50 [nM]
CCn1c(=O)c2c(C)c(C(=O)N3CCNC(=O)C3)sc2n(CCC=C(F)F)c1=O [Example 36, 1-(4,4-Difluorobut-3-en-1-yl)-3-ethyl-5-methyl-6-[(3-oxopiperazin-1-yl)carbonyl]thieno[2,3-d]pyrimidine-2,4(1H,3H)-dione] | 200
CCn1c(=O)c2c(C)c(C(=O)N3CCC(O)C(O)C3)sc2n(CCC(F)(F)F)c1=O (single isomer, unassigned) [Example 120, 6-[(3,4-Dihydroxypiperidin-1-yl)carbonyl]-3-ethyl-5-methyl-1-(3,3,3-trifluoropropyl)thieno [2,3-d]pyrimidine-2,4(1H,3H)-dione] | 130
COCCn1c(=O)n(CCc2ccccc2)c(=O)c2c(C)c(C(=O)N3CCC(O)CC3)sc21 [Example 3, 6-[(4-Hydroxypiperidin-1-yl)carbonyl]-1-(2-methoxyethyl)-5-methyl-3-(2-phenylethyl)thieno [2,3-d]pyrimidine-2,4(1H,3H)-dione] | 290
Cc1c(C(=O)N2CCC(O)CC2)sc2c1c(=O)n(CC(C)c1ccccc1)c(=O)n2CCC(F)(F)F (single isomer, unassigned; enantiomer 2) [Example 45, 6-[(4-Hydroxypiperidin-1-yl)carbonyl]-5-methyl-3-(2-phenylpropyl)-1-(3,3,3-trifluoropropyl)thieno[2,3-d]pyrimidine-2,4(1H,3H)-dione (enantiomer 2)] | 150
COC(Cn1c(=O)c2c(C)c(C(=O)N3CCC(O)CC3)sc2n(CCC(F)(F)F)c1=O)c1ccccc1 (single isomer, unassigned; enantiomer 2) [Example 47, 6-[(4-Hydroxypiperidin-1-yl)carbonyl]-3-(2-methoxy-2-phenylethyl)-5-methyl-1-(3,3,3-trifluoropropyl)thieno[2,3-d]pyrimidine-2,4(1H,3H)-dione (enantiomer 2)] | 4.4
Cc1c(C(=O)N2CCC(O)(CO)CC2)sc2c1c(=O)n(CCc1ccccc1)c(=O)n2CCOC(F)(F)F [Example 110, 6-{[4-Hydroxy-4-(hydroxymethyl)piperidin-1-yl]carbonyl}-5-methyl-3-(2-phenylethyl)-1-[2-(trifluoromethoxy)ethyl]thieno[2,3-d]pyrimidine-2,4(1H,3H)-dione] | 14
CCn1c(=O)c2c(C(F)F)c(C(=O)N3CCC(O)(CO)CC3)sc2n(CCC(F)(F)F)c1=O [Example 126] | 84
O=C1CN(C(=O)c2sc3c(c2C(F)F)c(=O)n(CCc2ccccc2)c(=O)n3CCC(F)(F)F)CCN1 [Example 97, 5-(Difluoromethyl)-6-[(3-oxopiperazin-1-yl)carbonyl]-3-(2-phenylethyl)-1-(3,3,3-trifluoropropyl)thieno[2,3-d]pyrimidine-2,4(1H,3H)-dione] | 7
Cc1c(C(=O)N2CCC(O)CC2)sc2c1c(=O)n(CC(C)(O)c1ccccc1)c(=O)n2CCC(F)(F)F (single isomer, unassigned) [Example 132, 3-(2-Hydroxy-2-phenylpropyl)-6-[(4-hydroxypiperidin-1-yl)carbonyl]-5-methyl-1-(3,3,3-trifluoropropyl)thieno[2,3-d]pyrimidine-2,4(1H,3H)-dione] | 24
COCCn1c(=O)c2c(C)c(C(=O)N3CCC(O)CC3)sc2n(CCC(F)(F)F)c1=O [Example 62, 6-[(4-Hydroxypiperidin-1-yl)carbonyl]-3-(2-methoxyethyl)-5-methyl-1-(3,3,3-trifluoropropyl)thieno[2,3-d]pyrimidine-2,4(1H,3H)-dione] | 120
Cc1c(C(=O)N2CCC(O)CC2)sc2c1c(=O)n(CCc1cccnc1)c(=O)n2CCC(F)(F)F [Example 15] | 32
CCn1c(=O)c2c(C)c(C(=O)N3CCC(O)CC3)sc2n(CCOC(F)(F)F)c1=O [Example 56, 3-Ethyl-6-[(4-hydroxypiperidin-1-yl)carbonyl]-5-methyl-1-[2-(trifluoromethoxy)ethyl]thieno[2,3-d]pyrimidine-2,4(1H,3H)-dione] | 19
CCn1c(=O)c2c(CF)c(C(=O)N3CCC(C)(O)CC3)sc2n(CCC(F)(F)F)c1=O [Example 144, 3-Ethyl-5-(fluoromethyl)-6-[(4-hydroxy-4-methylpiperidin-1-yl)carbonyl]-1-(3,3,3-trifluoropropyl)thieno[2,3-d]pyrimidine-2,4(1H,3H)-dione] | 170
CCn1c(=O)c2c(C(C)F)c(C(=O)N3CCNC(=O)C3)sc2n(CCC(F)(F)F)c1=O (racemic) [Example 147, 3-Ethyl-5-(1-fluoroethyl)-6-[(3-oxopiperazin-1-yl)carbonyl]-1-(3,3,3-trifluoropropyl)thieno[2,3-d]pyrimidine-2,4(1H,3H)-dione] | 100
CCn1c(=O)c2c(C(F)F)c(C(=O)N3CCNC(=O)C3)sc2n(CCC(F)(F)F)c1=O [Example 131, 5-(Difluoromethyl)-3-ethyl-6-[(3-oxopiperazin-1-yl)carbonyl]-1-(3,3,3-trifluoropropyl)thieno[2,3-d]pyrimidine-2,4(1H,3H)-dione] | 34
COCCn1c(=O)n(CC(F)(F)c2ccccc2)c(=O)c2c(C)c(C(=O)N3CCC(O)CC3)sc21 [Example 52, 3-(2,2-Difluoro-2-phenylethyl)-6-[(4-hydroxypiperidin-1-yl)carbonyl]-1-(2-methoxyethyl)-5-methylthieno[2,3-d]pyrimidine-2,4(1H,3H)-dione] | 210
CCn1c(=O)c2c(C(F)F)c(C(=O)N3CCC(C)(O)CC3)sc2n(CCC(F)(F)F)c1=O [Example 124, 5-(Difluoromethyl)-3-ethyl-6-[(4-hydroxy-4-methylpiperidin-1-yl)carbonyl]-1-(3,3,3-trifluoropropyl)thieno[2,3-d]pyrimidine-2,4(1H,3H)-dione] | 37
Cc1c(C(=O)N2CCC(O)CC2)sc2c1c(=O)n(CCc1ccc(Cl)cc1)c(=O)n2CCC(F)(F)F [Example 13, 3-[2-(4-Chlorophenyl)ethyl]-6-[(4-hydroxypiperidin-1-yl)carbonyl]-5-methyl-1-(3,3,3-trifluoropropyl)thieno [2,3-d]pyrimidine-2,4(1H,3H)-dione] | 100
CCn1c(=O)c2c(C)c(C(=O)N3CCC(O)CC3)sc2n(CCSC(F)(F)F)c1=O [Example 57, 3-Ethyl-6-[(4-hydroxypiperidin-1-yl)carbonyl]-5-methyl-1-{2-[(trifluoromethyl)sulphanyl]ethyl}thieno[2,3-d]pyrimidine-2,4(1H,3H)-dione] | 130
CCn1c(=O)c2c(C(F)F)c(C(=O)N3CCC(C)(O)CC3)sc2n(CCOC(F)(F)F)c1=O [Example 127, 5-(Difluoromethyl)-3-ethyl-6-[(4-hydroxy-4-methylpiperidin-1-yl)carbonyl]-1-[2-(trifluoromethoxy)ethyl]thieno[2,3-d]pyrimidine-2,4(1H,3H)-dione] | 9.5
COC(Cn1c(=O)c2c(C)c(C(=O)N3CCC(O)CC3)sc2n(CCC(F)(F)F)c1=O)C(F)(F)F (racemic) [Example 66, 6-[(4-Hydroxypiperidin-1-yl)carbonyl]-5-methyl-3-(3,3,3-trifluoro-2-methoxypropyl)-1-(3,3,3-trifluoropropyl)thieno[2,3-d]pyrimidine-2,4(1H,3H)-dione (racemate)] | 280
COC(Cn1c(=O)c2c(C)c(C(=O)N3CCC(O)(CO)CC3)sc2n(CCC(F)(F)F)c1=O)C(F)(F)F (racemic) [Example 81, 6-{[4-Hydroxy-4-(hydroxymethyl)piperidin-1-yl]carbonyl}-5-methyl-3-(3,3,3-trifluoro-2-methoxypropyl)-1-(3,3,3-trifluoropropyl)thieno[2,3-d]pyrimidine-2,4(1H,3H)-dione] | 170
Cc1c(C(=O)N2CCC(O)CC2)sc2c1c(=O)n(CC(O)c1ccccc1)c(=O)n2CCC(F)(F)F (single isomer, unassigned) [Example 100, 3-(2-Hydroxy-2-phenylethyl)-6-[(4-hydroxypiperidin-1-yl)carbonyl]-5-methyl-1-(3,3,3-trifluoropropyl)thieno[2,3-d]pyrimidine-2,4(1H,3H)-dione] | 29
CCn1c(=O)c2c(C(C)F)c(C(=O)N3CCNC(=O)C3)sc2n(CCC(F)(F)F)c1=O (single isomer, unassigned) [Example 149, 3-Ethyl-5-(1-fluoroethyl)-6-[(3-oxopiperazin-1-yl)carbonyl]-1-(3,3,3-trifluoropropyl)thieno[2,3-d]pyrimidine-2,4(1H,3H)-dione] | 320
Cc1c(C(=O)N2CCC(O)CC2)sc2c1c(=O)n(CC(C)(O)c1ccccc1)c(=O)n2CCC(F)(F)F (racemic) [Example 105, 3-(2-Hydroxy-2-phenylpropyl)-6-[(4-hydroxypiperidin-1-yl)carbonyl]-5-methyl-1-(3,3,3-trifluoropropyl)thieno[2,3-d]pyrimidine-2,4(1H,3H)-dione] | 69
Cc1c(C(=O)N2CCC(O)CC2)sc2c1c(=O)n(CC1(c3ccccc3)CC1)c(=O)n2CCC(F)(F)F [Example 49, 6-[(4-Hydroxypiperidin-1-yl)carbonyl]-5-methyl-3-[(1-phenylcyclopropyl)methyl]-1-(3,3,3-trifluoropropyl)thieno[2,3-d]pyrimidine-2,4(1H,3H)-dione] | 68
Cc1c(C(=O)N2CCC(O)CC2)sc2c1c(=O)n(CCc1cnccn1)c(=O)n2CCC(F)(F)F [Example 17, 6-[(4-Hydroxypiperidin-1-yl)carbonyl]-5-methyl-3-[2-(pyrazin-2-yl)ethyl]-1-(3,3,3-trifluoropropyl)thieno[2,3-d]pyrimidine-2,4(1H,3H)-dione] | 350
